Data taken from patent publication US20170240556A1, “BIFLUORODIOXALANE-AMINO-BENZIMIDAZOLE KINASE INHIBITORS FOR THE TREATMENT OF CANCER, AUTOIMMUNEINFLAMMATION AND CNS DISORDERS” (4SC DISCOVERY GMBH, priority 2012, published 2017).

biological target: Casein kinase 1 delta (CSKN1D) (Homo sapiens, UniProt P48730); assay: Casein kinase assay, CK1 delta; assay type: biochemical; conditions: recombinant CSKN1D 5 nM, ATP 10 μM
Description: The recombinant protein Casein kinase 1 delta (CSKN1D) was added to the substrate solution in a concentration of 5 nM and gently mixed. Dilution series in of compounds of the present invention in DMSO were added to the reaction mixture, followed after 20 min by addition of a mixture of ATP and ^33P-ATP (specific activity 0.01 μCi/μl final) to a final concentration of 10 μM. Reactions were carried out at 25° C. for 120 min, followed by spotting the reactions onto P81 ion exchange filter paper. Unbound phosphate was removed by washing of the filters in 0.75% phosphoric acid. […] IC50 values and curve fits were obtained using the program Prism® (Graph Pad Software).

Casein kinase 1 delta (CSKN1D), sequence (P48730 whole entry): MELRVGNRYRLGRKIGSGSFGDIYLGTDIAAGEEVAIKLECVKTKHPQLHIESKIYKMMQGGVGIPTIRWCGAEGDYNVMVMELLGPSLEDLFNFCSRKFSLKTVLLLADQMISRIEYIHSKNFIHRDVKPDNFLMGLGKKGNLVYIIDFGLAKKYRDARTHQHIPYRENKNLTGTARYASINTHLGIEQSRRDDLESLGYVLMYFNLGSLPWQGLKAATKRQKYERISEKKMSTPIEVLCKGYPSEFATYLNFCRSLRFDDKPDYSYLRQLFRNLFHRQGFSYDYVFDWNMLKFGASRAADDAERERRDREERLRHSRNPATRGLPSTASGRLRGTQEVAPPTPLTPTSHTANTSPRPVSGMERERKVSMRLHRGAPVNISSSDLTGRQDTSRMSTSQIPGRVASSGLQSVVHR

| Structure (SMILES) | IC50 |
| --- | --- |
| O=C(Nc1nc2cc3c(cc2[nH]1)OC(F)(F)O3)c1csc(-c2ccc3c(c2)OCCO3)n1 [Compound 82, N-(2,2-difluoro-5H-[1,3]dioxolo[4′,5′:4,5]benzo[1,2-d]imidazol-6-yl)-2-(2,3-dihydrobenzo[b][1,4]dioxin-6-yl)thiazole-4-carboxamide] | < 200 nM |
| CC(C)(C)c1nc(-c2cccc(C(=O)Nc3nc4cc5c(cc4[nH]3)OC(F)(F)O5)c2)no1 [Compound 132, 3-(5-(tert-butyl)-1,2,4-oxadiazol-3-yl)-N-(2,2-difluoro-5H-[1,3]dioxolo[4′,5′:4,5]benzo[1,2-d]imidazol-6-yl)benzamide] | < 200 nM |
| O=C(Nc1nc2cc3c(cc2[nH]1)OC(F)(F)O3)c1ccc(NCc2ccccc2)cc1 [Compound 76, 4-(benzylamino)-N-(2,2-difluoro-5H-[1,3]dioxolo[4′,5′:4,5]benzo[1,2-d]imidazol-6-yl)benzamide] | < 200 nM |
| O=C(Nc1nc2cc3c(cc2[nH]1)OC(F)(F)O3)c1cncc(-c2ccco2)c1 [Compound 4B, N-(2,2-difluoro-5H-[1,3]dioxolo[4′,5′:4,5]benzo[1,2-d]imidazol-6-yl)-5-(furan-2-yl)nicotinamide] | < 200 nM |
| N#Cc1cccc(C(=O)Nc2nc3cc4c(cc3[nH]2)OC(F)(F)O4)c1 [Compound 116, 3-cyano-N-(2,2-difluoro-5H-[1,3]dioxolo[4′,5′:4,5]benzo[1,2-d]imidazol-6-yl)benzamide] | < 200 nM |
| O=C(Nc1nc2cc3c(cc2[nH]1)OC(F)(F)O3)c1cccc(OC(F)F)c1 [Compound 121, N-(2,2-difluoro-5H-[1,3]dioxolo[4′,5′:4,5]benzo[1,2-d]imidazol-6-yl)-3-(difluoromethoxy)benzamide] | < 200 nM |
| CCOC(=O)c1cc(C)n(-c2cccc(C(=O)Nc3nc4cc5c(cc4[nH]3)OC(F)(F)O5)c2)c1C [Compound 139, ethyl 1-(3-((2,2-difluoro-5H-[1,3]dioxolo[4′,5′:4,5]benzo[1,2-d]imidazol-6-yl)carbamoyl)phenyl)-2,5-dimethyl-1H-pyrrole-3-carboxylate] | < 200 nM |
| Nc1ccc(C(=O)Nc2nc3cc4c(cc3[nH]2)OC(F)(F)O4)cn1 [Compound 110, 6-amino-N-(2,2-difluoro-5H-[1,3]dioxolo[4′,5′:4,5]benzo[1,2-d]imidazol-6-yl)nicotinamide] | 200 to 1000 nM |
| COc1cccc(C(=O)Nc2nc3cc4c(cc3[nH]2)OC(F)(F)O4)n1 [Compound 24B] | 200 to 1000 nM |
| O=C(Nc1nc2cc3c(cc2[nH]1)OC(F)(F)O3)c1cccc(C(F)(F)F)c1 [Compound 66, N-(2,2-difluoro-5H-[1,3]dioxolo[4′,5′:4,5]benzo[1,2-d]imidazol-6-yl)-3-(trifluoromethyl)benzamide] | < 200 nM |
| O=C(Nc1nc2cc3c(cc2[nH]1)OC(F)(F)O3)c1ccc2ccccc2n1 [Compound 59, N-(2,2-difluoro-5H-[1,3]dioxolo[4′,5′:4,5]benzo[1,2-d]imidazol-6-yl)quinoline-2-carboxamide] | > 1000 nM |
| O=C(Nc1nc(C(=O)Nc2nc3cc4c(cc3[nH]2)OC(F)(F)O4)ns1)c1ccsc1 [Compound 10B, N-(2,2-difluoro-5H-[1,3]dioxolo[4′,5′:4,5]benzo[1,2-d]imidazol-6-yl)-5-(thiophene-3-carboxamido)-1,2,4-thiadiazole-3-carboxamide] | < 200 nM |
| Nc1ccc(C(=O)Nc2nc3cc4c(cc3[nH]2)OC(F)(F)O4)cc1C(F)(F)F [Compound 126, 4-amino-N-(2,2-difluoro-5H-[1,3]dioxolo[4′,5′:4,5]benzo[1,2-d]imidazol-6-yl)-3-(trifluoromethyl)benzamide] | < 200 nM |
| O=C(Nc1nc2cc3c(cc2[nH]1)OC(F)(F)O3)c1cc[nH]n1 [Compound 73, N-(2,2-difluoro-5H-[1,3]dioxolo[4′,5′:4,5]benzo[1,2-d]imidazol-6-yl)-1H-pyrazole-3-carboxamide] | > 1000 nM |

Results, then the compound that gave them:

| IC50 | Structure (SMILES) |
| --- | --- |
| 200 to 1000 nM | O=C(Nc1nc2cc3c(cc2[nH]1)OC(F)(F)O3)c1cccc(OC(F)(F)F)c1 [Compound 120, N-(2,2-difluoro-5H-[1,3]dioxolo[4′,5′:4,5]benzo[1,2-d]imidazol-6-yl)-3-(trifluoromethoxy)benzamide] |
| < 200 nM | Cn1cc(C(=O)Nc2nc3cc4c(cc3[nH]2)OC(F)(F)O4)cn1 [Compound 13B, N-(2,2-difluoro-5H-[1,3]dioxolo[4′,5′:4,5]benzo[1,2-d]imidazol-6-yl)-1-methyl-1H-pyrazole-4-carboxamide] |
| < 200 nM | CS(=O)(=O)Nc1cccc(C(=O)Nc2nc3cc4c(cc3[nH]2)OC(F)(F)O4)c1 [Compound 108, N-(2,2-difluoro-5H-[1,3]dioxolo[4′,5′:4,5]benzo[1,2-d]imidazol-6-yl)-3-(methylsulfonamido)benzamide] |
| < 200 nM | CN(C)c1ccc(C(=O)Nc2nc3cc4c(cc3[nH]2)OC(F)(F)O4)cc1 [Compound 75, N-(2,2-difluoro-5H-[1,3]dioxolo[4′,5′:4,5]benzo[1,2-d]imidazol-6-yl)-4-(dimethylamino)benzamide] |
| < 200 nM | NS(=O)(=O)c1ccc(C(=O)Nc2nc3cc4c(cc3[nH]2)OC(F)(F)O4)cc1 [Compound 62, N-(2,2-difluoro-5H-[1,3]dioxolo[4′,5′:4,5]benzo[1,2-d]imidazol-6-yl)-4-sulfamoylbenzamide] |
| > 1000 nM | O=C(Nc1nc2cc3c(cc2[nH]1)OC(F)(F)O3)c1sccc1Cl [Compound 64, 3-chloro-N-(2,2-difluoro-5H-[1,3]dioxolo[4′,5′:4,5]benzo[1,2-d]imidazol-6-yl)thiophene-2-carboxamide] |
| < 200 nM | O=C(Nc1nc2cc3c(cc2[nH]1)OC(F)(F)O3)c1ccnc(N2CCSCC2)c1 [Compound 14B, N-(2,2-difluoro-5H-[1,3]dioxolo[4′,5′:4,5]benzo[1,2-d]imidazol-6-yl)-2-thiomorpholinoisonicotinamide] |
| 200 to 1000 nM | O=C(Nc1nc2cc3c(cc2[nH]1)OC(F)(F)O3)c1ccno1 [Compound 72, N-(2,2-difluoro-5H-[1,3]dioxolo[4′,5′:4,5]benzo[1,2-d]imidazol-6-yl)isoxazole-5-carboxamide] |
| 200 to 1000 nM | O=C(Nc1nc2cc3c(cc2[nH]1)OC(F)(F)O3)c1csc(-c2cccc(OC(F)(F)F)c2)n1 [Compound 19B] |
| < 200 nM | O=C(Nc1nc2cc3c(cc2[nH]1)OC(F)(F)O3)c1cccc([N+](=O)[O-])c1 [Compound 65, N-(2,2-difluoro-5H-[1,3]dioxolo[4′,5′:4,5]benzo[1,2-d]imidazol-6-yl)-3-nitrobenzamide] |
| < 200 nM | COC(=O)c1cccc(C(=O)Nc2nc3cc4c(cc3[nH]2)OC(F)(F)O4)c1 [Compound 105, methyl 3-((2,2-difluoro-5H-[1,3]dioxolo[4′,5′:4,5]benzo[1,2-d]imidazol-6-yl)carbamoyl)benzoate] |
| 200 to 1000 nM | O=C(Nc1nc2cc3c(cc2[nH]1)OC(F)(F)O3)c1ccc([N+](=O)[O-])s1 [Compound 63, N-(2,2-difluoro-5H-[1,3]dioxolo[4′,5′:4,5]benzo[1,2-d]imidazol-6-yl)-5-nitrothiophene-2-carboxamide] |
